Like-named read-outs stand apart in the source and are kept apart here. Where only a bound is given, the exact number is not on record here.

One experiment has as its target GSK-3β (Homo sapiens, UniProt P49841). The experiment in a line: GSK-3β enzyme activity assay. The experiment is classed as biochemical. The following applies: for GSK-3β inhibition, result in words: titration from 20 μM.
Experiment [1] deals with T1, HIV reverse transcriptase (RT) (Human immunodeficiency virus type 1 group M subtype B, UniProt P03366). The experiment in a line: NNRTI assay. The format is biochemical.
For a further experiment, the system named is HIV, WT. The settings on record: read-out: HIV, WT EC50, cited from earlier work.
Experiment [2] deals with T1, HIV reverse transcriptase (RT). The following applies: read-out: HIV RT IC50; marked *, previously reported data ref 19; cited from earlier work.

Chain of GSK-3β (P49841 whole entry): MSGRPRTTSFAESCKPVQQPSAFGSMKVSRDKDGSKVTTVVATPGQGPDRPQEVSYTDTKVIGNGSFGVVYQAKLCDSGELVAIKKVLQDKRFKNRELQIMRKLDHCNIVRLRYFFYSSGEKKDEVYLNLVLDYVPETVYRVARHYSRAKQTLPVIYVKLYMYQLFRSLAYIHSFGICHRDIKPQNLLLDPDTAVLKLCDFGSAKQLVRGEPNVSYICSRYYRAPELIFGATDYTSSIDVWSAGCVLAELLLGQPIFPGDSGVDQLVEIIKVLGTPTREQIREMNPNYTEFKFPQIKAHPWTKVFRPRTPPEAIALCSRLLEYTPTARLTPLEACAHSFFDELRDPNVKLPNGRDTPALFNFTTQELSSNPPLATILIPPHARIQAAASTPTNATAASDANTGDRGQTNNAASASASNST

One may read the IC50 as the concentration that gives 50% inhibition. Usually EC50 stands for the midpoint of the concentration-response curve. Consider `Cc1cc(/C=C/C#N)cc(C)c1Nc1ccnc(Nc2ccc(C#N)cc2)n1` [Rilpivirine], for which the IC50 at GSK-3β came to 0.502 µM; in experiment [1], 0.16 µM. For the same compound, in the experiment on HIV, WT (whole cell activity ref 21), the EC50 is 0.00067 µM.

As to `Cn1c(Cn2ccc(C(F)(F)F)c(Oc3cc(Cl)cc(C#N)c3)c2=O)n[nH]c1=O` [Doravirine], at GSK-3β, the IC50 is more than 20 µM and the “GSK-3β inhibition, result in words” value is reported as “not inhibitors”. Moreover, the concentration for half-maximal inhibition (IC50) in experiment [2] is 0.0207 µM. For the same compound, the EC50 in the experiment on HIV, WT (whole cell activity ref 22) was 0.013 µM.

For the compound `Cc1cc(C#N)cc(C)c1Oc1nc(Nc2ccc(C#N)cc2)nc(N)c1Br` [Etravirine], the IC50 against GSK-3β worked out at 0.619 µM. Further, the EC50 with HIV, WT (whole cell activity ref 21) is 0.001 µM.

`Cc1ccnc2c1NC(=O)c1cccnc1N2C1CC1` [Nevirapine]: at GSK-3β, the IC50 was found to be 1.67 µM. Also, the EC50 in the experiment with HIV, WT (whole cell activity ref 21) is 0.11 µM.

Consider `O=C1Nc2ccc(Cl)cc2[C@@](C#CC2CC2)(C(F)(F)F)O1` [Efavirenz], for which, at GSK-3β, the IC50 was more than 20 µM and the “GSK-3β inhibition, result in words” value is “not inhibitors”. The EC50 in the experiment with HIV, WT (whole cell activity ref 21) is 0.002 µM.

The values are drawn from paper PMC12107553 (ACS chemical neuroscience, 2024).
